Results reported in the supplement of paper PMC10307832.

Legend:
Assay in all cases: relative viability (nuclei count vs DMSO), 5 days (fraction); higher = more cells survive
[1] = compound: C1CNCCC1C2=CC(=NN2)C3=CC=NC=C3 + O=C(c1cc(Cc2n[nH]c(=O)c3ccccc23)ccc1F)N1CCN(C(=O)C2CC2)CC1 [Olaparib] (partner 8 µM)
In short: (§1)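 Medians of duplicate plates are given as relative viability. That measure is the nuclei count in treated wells divided by the count in vehicle wells. Counts were taken on 4× images of lung cancer cell lines in 1536-well plates, 5 days after pin-tool dosing the day after seeding with one drug alone or a fixed anchor-drug dose plus five library-drug doses (not always all listed) in √10 steps.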

[2] = compound: C[C@@H](N)c1ccc(C(=O)Nc2ccnc3[nH]ccc23)cc1 + N=C(N)NC(=N)NCCc1ccccc1 [Phenformin] (partner 250 µM)
In short: as §1

[3] = compound: C[C@@H](N)c1ccc(C(=O)Nc2ccnc3[nH]ccc23)cc1 + Nc1nc2[nH]cc(CCc3ccc(C(=O)N[C@@H](CCC(=O)O)C(=O)O)cc3)c2c(=O)[nH]1 [Pemetrexed] (partner 0.2 µM)
In short: as §1

[4] = compound: C[C@@H](N)c1ccc(C(=O)Nc2ccnc3[nH]ccc23)cc1 + O=C(c1cc(Cc2n[nH]c(=O)c3ccccc23)ccc1F)N1CCN(C(=O)C2CC2)CC1 [Olaparib] (partner 8 µM)
In short: as §1

NCI-H3122 gave a relative viability ([1]; first compound 0.08 µM) of 0.571, a relative viability ([1]; first compound 0.8 µM) of 0.6 and a relative viability ([1]; first compound 2.53 µM) of 0.583. The relative viability ([1]; first compound 8 µM) was 0.61, the relative viability ([2]; first compound 0.04 µM) was 0.352 and the relative viability ([2]; first compound 0.1265 µM) was 0.413. For the same cell line, the relative viability ([2]; first compound 0.4 µM) was 0.39, the relative viability ([2]; first compound 4 µM) was 0.377 and the relative viability ([3]; first compound 0.04 µM) was 0.202. For the same cell line, the relative viability ([3]; first compound 0.1265 µM) was 0.216, the relative viability ([3]; first compound 0.4 µM) was 0.203 and the relative viability ([3]; first compound 1.265 µM) was 0.21. It also gave a relative viability ([3]; first compound 4 µM) of 0.222, a relative viability ([4]; first compound 0.04 µM) of 0.625 and a relative viability ([4]; first compound 0.1265 µM) of 0.613. For the same cell line, the relative viability ([4]; first compound 0.4 µM) was 0.638, the relative viability ([4]; first compound 1.265 µM) was 0.702 and the relative viability ([4]; first compound 4 µM) was 0.622.

Cell Line PC-14 has a relative viability ([1]; first compound 0.08 µM) of 0.21, a relative viability ([1]; first compound 0.8 µM) of 0.273 and a relative viability ([1]; first compound 2.53 µM) of 0.228. For the same cell line, the relative viability ([1]; first compound 8 µM) was 0.279, the relative viability ([2]; first compound 0.04 µM) was 0.409 and the relative viability ([2]; first compound 0.1265 µM) was 0.653. The relative viability ([2]; first compound 0.4 µM) was 0.555, the relative viability ([2]; first compound 1.265 µM) was 0.348 and the relative viability ([2]; first compound 4 µM) was 0.519. For the same cell line, the relative viability ([3]; first compound 0.04 µM) was 0.139, the relative viability ([3]; first compound 0.1265 µM) was 0.126 and the relative viability ([3]; first compound 0.4 µM) was 0.138. For the same cell line, the relative viability ([3]; first compound 4 µM) was 0.169, the relative viability ([4]; first compound 0.04 µM) was 0.281 and the relative viability ([4]; first compound 0.1265 µM) was 0.233. For the same cell line, the relative viability ([4]; first compound 0.4 µM) was 0.263, the relative viability ([4]; first compound 1.265 µM) was 0.29 and the relative viability ([4]; first compound 4 µM) was 0.271.

Cell Line EPLC-272H has a relative viability ([1]; first compound 0.08 µM) of 0.973, a relative viability ([1]; first compound 0.8 µM) of 0.761 and a relative viability ([1]; first compound 2.53 µM) of 0.935. It also gave a relative viability ([1]; first compound 8 µM) of 0.801, a relative viability ([2]; first compound 0.04 µM) of 0.365 and a relative viability ([2]; first compound 0.1265 µM) of 0.44. For the same cell line, the relative viability ([2]; first compound 0.4 µM) was 0.279, the relative viability ([2]; first compound 1.265 µM) was 0.198 and the relative viability ([2]; first compound 4 µM) was 0.241. For the same cell line, the relative viability ([3]; first compound 0.04 µM) was 0.251, the relative viability ([3]; first compound 0.1265 µM) was 0.339 and the relative viability ([3]; first compound 0.4 µM) was 0.312. The relative viability ([3]; first compound 1.265 µM) was 0.238, the relative viability ([3]; first compound 4 µM) was 0.225 and the relative viability ([4]; first compound 0.04 µM) was 0.729. The relative viability ([4]; first compound 0.1265 µM) was 1.17, the relative viability ([4]; first compound 0.4 µM) was 0.808 and the relative viability ([4]; first compound 1.265 µM) was 0.703. It also gave a relative viability ([4]; first compound 4 µM) of 0.394.

With A-427 the relative viability ([1]; first compound 0.08 µM) was 0.589, the relative viability ([1]; first compound 0.8 µM) was 0.775 and the relative viability ([1]; first compound 2.53 µM) was 0.752. It also gave a relative viability ([1]; first compound 8 µM) of 0.716, a relative viability ([2]; first compound 0.04 µM) of 0.287 and a relative viability ([2]; first compound 0.1265 µM) of 0.402. For the same cell line, the relative viability ([2]; first compound 0.4 µM) was 0.332, the relative viability ([2]; first compound 4 µM) was 0.284 and the relative viability ([3]; first compound 0.04 µM) was 0.827. It also gave a relative viability ([3]; first compound 0.1265 µM) of 0.985, a relative viability ([3]; first compound 0.4 µM) of 0.815 and a relative viability ([3]; first compound 1.265 µM) of 0.671. For the same cell line, the relative viability ([3]; first compound 4 µM) was 0.726, the relative viability ([4]; first compound 0.04 µM) was 0.698 and the relative viability ([4]; first compound 0.1265 µM) was 0.817. It also gave a relative viability ([4]; first compound 0.4 µM) of 0.762, a relative viability ([4]; first compound 1.265 µM) of 0.589 and a relative viability ([4]; first compound 4 µM) of 0.649.
